Results taken from ChEMBL document CHEMBL2346534, “Design, synthesis and in vitro anti-proliferative activity of 4,6-quinazolinediamines as potent EGFR-TK inhibitors” (Eur J Med Chem, 2013).

Each compound was assayed against Epidermal growth factor receptor (Homo sapiens, UniProt P00533). Details: at 10 µM.
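Also: EGFR tyrosine kinase activity on a poly(Glu,Tyr) substrate, read out by Kinase-Glo Plus luminescence after a 40 min reaction.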
Description: Inhibition of EGFR tyrosine kinase (unknown origin) using poly (Glu,Tyr) as substrate at 10 uM after 40 mins by Kinase-Glo Plus luminescence kinase assay

Epidermal growth factor receptor, sequence (P00533 whole entry): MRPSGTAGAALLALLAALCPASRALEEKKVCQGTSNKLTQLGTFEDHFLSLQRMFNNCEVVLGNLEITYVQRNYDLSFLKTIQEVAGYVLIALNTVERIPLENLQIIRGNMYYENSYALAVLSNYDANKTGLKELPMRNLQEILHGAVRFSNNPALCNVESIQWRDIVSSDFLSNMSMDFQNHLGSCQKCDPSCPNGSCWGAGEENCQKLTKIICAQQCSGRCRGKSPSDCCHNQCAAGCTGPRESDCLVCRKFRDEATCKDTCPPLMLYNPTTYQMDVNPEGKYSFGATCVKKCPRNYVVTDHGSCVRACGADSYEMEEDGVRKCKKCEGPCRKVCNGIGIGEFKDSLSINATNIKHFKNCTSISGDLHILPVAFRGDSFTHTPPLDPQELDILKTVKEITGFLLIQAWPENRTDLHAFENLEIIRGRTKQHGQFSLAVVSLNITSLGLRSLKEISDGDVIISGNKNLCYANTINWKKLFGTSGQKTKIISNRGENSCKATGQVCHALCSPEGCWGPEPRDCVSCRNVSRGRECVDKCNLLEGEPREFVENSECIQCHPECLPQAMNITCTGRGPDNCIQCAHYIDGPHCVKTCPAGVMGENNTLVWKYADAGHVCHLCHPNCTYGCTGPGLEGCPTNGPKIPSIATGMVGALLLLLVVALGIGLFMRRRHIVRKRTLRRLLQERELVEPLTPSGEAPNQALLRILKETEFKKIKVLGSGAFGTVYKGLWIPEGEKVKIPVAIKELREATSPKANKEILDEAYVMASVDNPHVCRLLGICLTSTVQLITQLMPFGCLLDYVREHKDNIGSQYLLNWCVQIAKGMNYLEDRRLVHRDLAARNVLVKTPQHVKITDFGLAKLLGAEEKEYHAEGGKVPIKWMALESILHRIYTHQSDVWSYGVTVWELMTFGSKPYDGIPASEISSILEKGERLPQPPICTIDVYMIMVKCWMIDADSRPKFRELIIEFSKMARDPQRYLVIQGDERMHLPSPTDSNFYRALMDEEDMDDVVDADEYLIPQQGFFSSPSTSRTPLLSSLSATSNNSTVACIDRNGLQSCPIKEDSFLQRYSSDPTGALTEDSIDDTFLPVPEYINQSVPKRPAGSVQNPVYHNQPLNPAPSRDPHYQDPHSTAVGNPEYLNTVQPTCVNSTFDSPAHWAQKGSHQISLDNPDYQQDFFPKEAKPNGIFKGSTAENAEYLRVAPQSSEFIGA

inhibition [%] | Structure (SMILES)
100 | CCOC(=O)C(=CNc1ccc2ncnc(Nc3ccccc3Cl)c2c1)C(=O)OCC
82 | CCOC(=O)C(=CNc1ccc2ncnc(Nc3ccc(Cl)cc3)c2c1)C(=O)OCC
90 | CCOC(=O)C(=CNc1ccc2ncnc(Nc3ccc(Cl)cc3Cl)c2c1)C(=O)OCC
100 | CCOC(=O)C(=CNc1ccc2ncnc(Nc3cccc(Br)c3)c2c1)C(=O)OCC

The next lines start with the compound.

Structure (SMILES) | inhibition [%]
CCOC(=O)C(=CNc1ccc2ncnc(Nc3ccc(O)cc3)c2c1)C(=O)OCC | 100
CCOC(=O)/C(C#N)=C\Nc1ccc2ncnc(Nc3cccc(O)c3)c2c1 | 100
CCOC(=O)/C(C#N)=C\Nc1ccc2ncnc(Nc3ccc(O)cc3)c2c1 | 100
C#Cc1cccc(Nc2ncnc3ccc(NC=C(C(=O)OCC)C(=O)OCC)cc23)c1 | 100
Nc1ccc2ncnc(Nc3ccccc3Cl)c2c1 | 90
CCOC(=O)/C(C#N)=C\Nc1ccc2ncnc(Nc3cccc(Br)c3)c2c1 | 100
CCOC(=O)/C(C#N)=C\Nc1ccc2ncnc(Nc3ccccc3CC)c2c1 | 84
